Measured values as given in PubChem BioAssay AID1963830 (Molecular Pharmacology Branch, DTP, NCI, 2024).

Tested on: 922993-354-T-J3-PDC complex spheroid viability
Assay: Anticancer human tumor 922993-354-T-J3-PDC patient-derived endometrial carcinoma cell line growth inhibition [POLQ]
Conditions: for IC50: curve of first compound; for viability, T/C: stronger effect = lower value; active = viability on the fitted dose curve at most 10% of control; inactive = the rest
Procedure, shortened: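 Growth inhibition in 3D: complex spheroids (tumor PDC, HUVEC, MSC) treated with POLQ inhibitor combinations; where Cmax unknown, highest tested concentration 10 microM, except SN-38 at 1 microM.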

[1] = second compound 0.0316 µM, first compound 0.0316 µM
[2] = second compound 0.0316 µM, first compound 0.1 µM
[3] = second compound 0.0316 µM, first compound 0.316 µM
[4] = second compound 0.0316 µM, first compound 1 µM
[5] = second compound 0.0316 µM, first compound 3.16 µM
[6] = second compound 0.0316 µM, first compound 10 µM
[7] = second compound 0.1 µM, first compound 0.0316 µM
[8] = second compound 0.1 µM, first compound 0.1 µM
[9] = second compound 0.1 µM, first compound 0.316 µM
[10] = second compound 0.1 µM, first compound 1 µM
[11] = second compound 0.1 µM, first compound 3.16 µM
[12] = second compound 0.1 µM, first compound 10 µM
[13] = second compound 0.316 µM, first compound 0.0316 µM
[14] = second compound 0.316 µM, first compound 0.1 µM
[15] = second compound 0.316 µM, first compound 0.316 µM
[16] = second compound 0.316 µM, first compound 1 µM
[17] = second compound 0.316 µM, first compound 3.16 µM
[18] = second compound 0.316 µM, first compound 10 µM
[19] = second compound 1 µM, first compound 0.0316 µM
[20] = second compound 1 µM, first compound 0.1 µM
[21] = second compound 1 µM, first compound 0.316 µM
[22] = second compound 1 µM, first compound 1 µM
[23] = second compound 1 µM, first compound 3.16 µM
[24] = second compound 1 µM, first compound 10 µM
[25] = second compound 3.16 µM, first compound 0.0316 µM
[26] = second compound 3.16 µM, first compound 0.1 µM
[27] = second compound 3.16 µM, first compound 0.316 µM
[28] = second compound 3.16 µM, first compound 1 µM
[29] = second compound 3.16 µM, first compound 3.16 µM
[30] = second compound 3.16 µM, first compound 10 µM
[31] = second compound 10 µM, first compound 0.0316 µM
[32] = second compound 10 µM, first compound 0.1 µM
[33] = second compound 10 µM, first compound 0.316 µM
[34] = second compound 10 µM, first compound 1 µM
[35] = second compound 10 µM, first compound 3.16 µM
[36] = second compound 10 µM, first compound 10 µM
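Also: spheroids exposed to the agents for one week.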
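For viability, T/C in this document: 100% = DMSO vehicle control wells.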

Nc1ccn(C2OC(CO)C(O)C2(F)F)c(=O)n1 (stereo unspecified) + Nc1ccc(C#CCN(C(=O)Cc2ncc(C(F)(F)F)cc2C(F)(F)F)c2ccc(F)cc2)nn1
< 0.0316 µM: IC50 (second compound 0.0316 µM) | IC50 (second compound 0.1 µM) | IC50 (second compound 0.316 µM) | IC50 (second compound 1 µM) | IC50 (second compound 3.16 µM) | IC50 (second compound 10 µM)
inactive: viability, T/C [1] 25.5% | viability, T/C [2] 25% | viability, T/C [3] 20.9% | viability, T/C [4] 22.2% | viability, T/C [5] 22.2% | viability, T/C [6] 17.2% | viability, T/C [7] 25.9% | viability, T/C [8] 25.5% | viability, T/C [9] 18.4% | viability, T/C [10] 21.9% | viability, T/C [11] 21.3% | viability, T/C [12] 19.4% | viability, T/C [13] 24.9% | viability, T/C [14] 24% | viability, T/C [15] 22.1% | viability, T/C [16] 20.1% | viability, T/C [17] 22.4% | viability, T/C [18] 20.5% | viability, T/C [19] 23.1% | viability, T/C [20] 19.1% | viability, T/C [21] 22.7% | viability, T/C [22] 21.8% | viability, T/C [23] 21.3% | viability, T/C [24] 23.3% | viability, T/C [25] 23.4% | viability, T/C [26] 18.7% | viability, T/C [27] 19.1% | viability, T/C [28] 20.4% | viability, T/C [29] 21.1% | viability, T/C [30] 20.8% | viability, T/C [31] 23.2% | viability, T/C [32] 18.9% | viability, T/C [33] 21.9% | viability, T/C [34] 18.4% | viability, T/C [35] 20.1% | viability, T/C [36] 17.5%

O=C(c1cc(Cc2n[nH]c(=O)c3ccccc23)ccc1F)N1CCN(C(=O)C2CC2)CC1 + Nc1ccc(C#CCN(C(=O)Cc2ncc(C(F)(F)F)cc2C(F)(F)F)c2ccc(F)cc2)nn1
inactive: viability, T/C [1] 107% | viability, T/C [2] 97.6% | viability, T/C [3] 99.4% | viability, T/C [4] 101% | viability, T/C [5] 102% | viability, T/C [6] 96.7% | viability, T/C [7] 104% | viability, T/C [8] 103% | viability, T/C [9] 100% | viability, T/C [10] 98% | viability, T/C [11] 101% | viability, T/C [12] 95% | viability, T/C [13] 104% | viability, T/C [14] 99.5% | viability, T/C [15] 101% | viability, T/C [16] 101% | viability, T/C [17] 102% | viability, T/C [18] 97.1% | viability, T/C [19] 99% | viability, T/C [20] 105% | viability, T/C [21] 101% | viability, T/C [22] 96.2% | viability, T/C [23] 100% | viability, T/C [24] 100% | viability, T/C [25] 101% | viability, T/C [26] 100% | viability, T/C [27] 99.2% | viability, T/C [28] 98.6% | viability, T/C [29] 97.5% | viability, T/C [30] 101% | viability, T/C [31] 95.6% | viability, T/C [32] 96.9% | viability, T/C [33] 88.8% | viability, T/C [34] 91.9% | viability, T/C [35] 94.2% | viability, T/C [36] 90%
> 10 µM: IC50 (second compound 0.0316 µM) | IC50 (second compound 0.1 µM) | IC50 (second compound 0.316 µM) | IC50 (second compound 1 µM) | IC50 (second compound 3.16 µM) | IC50 (second compound 10 µM)

O=c1[nH]cc(F)c(=O)[nH]1 + Nc1ccc(C#CCN(C(=O)Cc2ncc(C(F)(F)F)cc2C(F)(F)F)c2ccc(F)cc2)nn1
5.83 µM: IC50 (second compound 0.0316 µM)
5.75 µM: IC50 (second compound 1 µM)
5.48 µM: IC50 (second compound 3.16 µM)
5.94 µM: IC50 (second compound 0.1 µM)
inactive: viability, T/C [1] 103% | viability, T/C [2] 105% | viability, T/C [3] 105% | viability, T/C [4] 103% | viability, T/C [5] 79.9% | viability, T/C [6] 23.6% | viability, T/C [7] 106% | viability, T/C [8] 103% | viability, T/C [9] 104% | viability, T/C [10] 102% | viability, T/C [11] 80.7% | viability, T/C [12] 24.6% | viability, T/C [13] 104% | viability, T/C [14] 104% | viability, T/C [15] 104% | viability, T/C [16] 99.6% | viability, T/C [17] 76.8% | viability, T/C [18] 23.8% | viability, T/C [19] 103% | viability, T/C [20] 98.5% | viability, T/C [21] 103% | viability, T/C [22] 102% | viability, T/C [23] 82.4% | viability, T/C [24] 19.8% | viability, T/C [25] 99.8% | viability, T/C [26] 103% | viability, T/C [27] 100% | viability, T/C [28] 102% | viability, T/C [29] 75.7% | viability, T/C [30] 21.9% | viability, T/C [31] 98.6% | viability, T/C [32] 101% | viability, T/C [33] 100% | viability, T/C [34] 96.6% | viability, T/C [35] 77.4% | viability, T/C [36] 17.3%
5.66 µM: IC50 (second compound 0.316 µM)
5.32 µM: IC50 (second compound 10 µM)
